From patent US12421229B2, “Hydropyrido[1,2-α]pyrazine compounds for the treatment of autoimmune disease” (Hoffmann-La Roche Inc., priority 2019, dated 2025)

target: T1, human TLR7 (Homo sapiens, UniProt Q9NYK1); assay: HEK293-Blue-hTLR-7 cells assay; type: cell-based; settings: HEK293-Blue-hTLR7 cells, R848 stimulation, 20 hrs, SEAP reporter; read-out: HEK/hTLR7 IC50
T1 construct: host or cells: HEK293 (HEK-Blue hTLR7)
T1 sequence (Q9NYK1 27-1049): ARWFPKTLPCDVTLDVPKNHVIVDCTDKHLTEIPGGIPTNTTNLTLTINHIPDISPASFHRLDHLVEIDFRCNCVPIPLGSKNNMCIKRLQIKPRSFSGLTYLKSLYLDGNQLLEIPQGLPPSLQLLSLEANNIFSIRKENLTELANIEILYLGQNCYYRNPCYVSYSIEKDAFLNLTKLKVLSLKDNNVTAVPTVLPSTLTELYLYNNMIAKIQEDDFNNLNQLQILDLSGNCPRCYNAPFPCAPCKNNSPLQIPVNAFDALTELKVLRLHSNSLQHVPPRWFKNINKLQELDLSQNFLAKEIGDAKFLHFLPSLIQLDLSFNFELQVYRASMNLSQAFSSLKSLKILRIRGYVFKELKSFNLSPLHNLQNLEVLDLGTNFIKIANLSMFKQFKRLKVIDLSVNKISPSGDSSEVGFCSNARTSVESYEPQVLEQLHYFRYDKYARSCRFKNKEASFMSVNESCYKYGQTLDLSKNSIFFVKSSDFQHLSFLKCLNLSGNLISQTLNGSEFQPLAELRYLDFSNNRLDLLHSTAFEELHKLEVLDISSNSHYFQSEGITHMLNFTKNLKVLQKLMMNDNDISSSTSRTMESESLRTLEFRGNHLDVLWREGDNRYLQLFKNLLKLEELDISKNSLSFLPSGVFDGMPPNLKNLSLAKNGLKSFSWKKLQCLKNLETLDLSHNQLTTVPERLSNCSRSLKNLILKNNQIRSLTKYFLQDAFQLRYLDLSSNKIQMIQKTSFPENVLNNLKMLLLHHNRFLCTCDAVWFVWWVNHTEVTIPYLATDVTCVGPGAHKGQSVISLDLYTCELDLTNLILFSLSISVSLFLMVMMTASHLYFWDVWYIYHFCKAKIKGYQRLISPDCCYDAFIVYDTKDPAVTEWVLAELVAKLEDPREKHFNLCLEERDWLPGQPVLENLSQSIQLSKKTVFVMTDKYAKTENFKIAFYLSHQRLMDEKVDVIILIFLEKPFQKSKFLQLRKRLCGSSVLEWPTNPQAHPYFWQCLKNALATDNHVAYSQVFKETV
From the text: A stable HEK293-Blue-hTLR-7 cell line was purchased from InvivoGen (Cat. #: hkb-htlr7, San Diego, California, USA). These cells were originally designed for studying the stimulation of human TLR7 by monitoring the activation of NF-κB. A SEAP (secreted embryonic alkaline phosphatase) reporter gene was placed under the control of the IFN-β minimal promoter fused to five NF-κB and AP-1-binding sites. The SEAP was induced by activating NF-κB and AP-1 via stimulating HEK-Blue hTLR7 cells with TLR7 ligands. Therefore the reporter expression was declined by TLR7 antagonist under the stimulation of a ligand, such as R848 (Resiquimod), for incubation of 20 hrs. The cell culture supernatant SEAP reporter activity was determined using QUANTI-Blue™ kit (Cat. #: rep-qb1, Invivogen, San Diego, Ca, USA) at a wavelength of 640 nm, a detection medium that turns purple or blue in the presence of alkaline phosphatase.
HEK293-Blue-hTLR7 cells were incubated at a density of 250,000˜450,000 cells/mL in a volume of 170 μL in a 96-well plate in Dulbecco's Modified Eagle's medium (DMEM) containing 4.5 g/L glucose, 50 U/mL penicillin, […], […], 2 mM L-glutamine, 10% (v/v) heat-inactivated fetal bovine serum with addition of 20 μL test compound in a serial dilution in the presence of final DMSO at 1% and 10 μL of 20 uM R848 in above DMEM, perform incubation under 37° C. in a CO2 incubator for 20 hrs. Then 20 μL of the supernatant from each well was incubated with 180 μL Quanti-blue substrate solution at 37° C. for 2 hrs and the absorbance was read at 620˜655 nm using a spectrophotometer. The signaling pathway that TLR7 activation leads to downstream NF-κB activation has been widely accepted, and therefore similar reporter assay was modified for evaluating TLR7 antagonist.

| SMILES | IC50 |
| --- | --- |
| CO[C@H]1CN(c2ccc([C@@H]3CCN4[C@@H](C3)CN(c3ccc(C#N)c5ncccc35)C[C@H]4C)cn2)C[C@H]1N [Example 12, 5-[(4R,8R,9aS)-8-[6-[(3R,4S)-3-amino-4-methoxy-pyrrolidin-1-yl]-3-pyridyl]-4-methyl-1,3,4,6,7,8,9,9a-octahydropyrido[1,2-a]pyrazin-2-yl]quinoline-8-carbonitrile] | 17 nM |
| CO[C@H]1CN(c2ccc(O[C@H]3CCN4[C@@H](C3)CN(c3ccc(C#N)c5ncccc35)C[C@H]4C)cn2)C[C@H]1N [Example 28, 5-[(4R,8S,9aS)-8-[[6-[(3R,4S)-3-amino-4-methoxy-pyrrolidin-1-yl]-3-pyridyl]oxy]-4-methyl-1,3,4,6,7,8,9,9a-octahydropyrido[1,2-a]pyrazin-2-yl]quinoline-8-carbonitrile] | 47 nM |
| C[C@@H]1CN(c2ccc(C#N)c3ncccc23)C[C@@H]2C[C@@H](Oc3cnc(N4CCNCC4)nc3)CCN21 [Example 18, 5-[(4R,8S,9aS)-4-methyl-8-(2-piperazin-1-ylpyrimidin-5-yl)oxy-1,3,4,6,7,8,9,9a-octahydropyrido[1,2-a]pyrazin-2-yl]quinoline-8-carbonitrile] | 21 nM |
| CO[C@@H]1CN(c2ccc(C3CN([C@@H]4CCN5[C@@H](C4)CN(c4ccc(C#N)c6ncccc46)C[C@H]5C)C3)cc2)C[C@H]1N [Example 30, 5-[(4R,8R,9aS)-8-[3-[4-[(3R,4R)-3-amino-4-methoxy-pyrrolidin-1-yl]phenyl]azetidin-1-yl]-4-methyl-1,3,4,6,7,8,9,9a-octahydropyrido[1,2-a]pyrazin-2-yl]quinoline-8-carbonitrile] | 41 nM |
| [2H]c1ccc2c(N3C[C@@H]4C[C@@H](N5CC(c6ccc(N7C[C@@H](N)[C@H](OC)C7)cc6)C5)CCN4[C@H](C)C3)ccc(C#N)c2n1 [Example 36] | 30 nM |
| C[C@@H]1CN(c2ccc(C#N)c3ncccc23)C[C@@H]2C[C@@H](Oc3ccc(N4CCNCC4)nc3)CCN21 [Example 16, 5-[(4R,8S,9aS)-4-methyl-8-[(6-piperazin-1-yl-3-pyridyl)oxy]-1,3,4,6,7,8,9,9a-octahydropyrido[1,2-a]pyrazin-2-yl]quinoline-8-carbonitrile] | 35 nM |
| C[C@@H]1CN(c2ccc(C#N)c3ncccc23)C[C@@H]2C[C@H](c3ccc(N4CC(N)C4)nc3)CCN21 [Example 7, 5-[(4R,8R,9aS)-8-[6-(3-aminoazetidin-1-yl)-3-pyridyl]-4-methyl-1,3,4,6,7,8,9,9a-octahydropyrido[1,2-a]pyrazin-2-yl]quinoline-8-carbonitrile] | 32 nM |
| C[C@@H]1CN(c2ccc(C#N)c3ncccc23)C[C@@H]2C[C@H](c3ccc(N4CCOC[C@@H](N)C4)nc3)CCN21 [Example 23, 5-[(4R,8R,9aS)-8[6-[(6S)-6-amino-1,4-oxazepan-4-yl]-3-pyridyl]-4-methyl-1,3,4,6,7,8,9,9a-octahydropyrido[1,2-a]pyrazin-2-yl]quinoline-8-carbonitrile] | 21 nM |
| CO[C@@H]1CN(c2ccc([C@@H]3CCN4[C@@H](C3)CN(c3ccc(C#N)c5ncccc35)C[C@H]4C)cn2)C[C@H]1N [Example 14, 5-[(4R,8R,9aS)-8-[6-[(3R,4R)-3-amino-4-methoxy-pyrrolidin-1-yl]-3-pyridyl]-4-methyl-1,3,4,6,7,8,9,9a-octahydropyrido[1,2-a]pyrazin-2-yl]quinoline-8-carbonitrile] | 23 nM |
| C[C@@H]1CN(c2ccc(C#N)c3ncccc23)C[C@H]2C[C@H](c3ccc(N4CCNCC4)nc3)CCN21 [Example 15, 5-[(4R,8R,9aR)-4-methyl-8-(6-piperazin-1-yl-3-pyridyl)-1,3,4,6,7,8,9,9a-octahydropyrido[1,2-a]pyrazin-2-yl]quinoline-8-carbonitrile] | 24 nM |
| CO[C@@H]1CN(c2ccc([C@@H]3CCN4[C@@H](C3)CN(c3ccc(C#N)c5ncccc35)C[C@H]4C)cn2)C[C@@H]1N [Example 13, 5-[(4R,8R,9aS)-8-[6-[(3S,4R)-3-amino-4-methoxy-pyrrolidin-1-yl]-3-pyridyl]-4-methyl-1,3,4,6,7,8,9,9a-octahydropyrido[1,2-a]pyrazin-2-yl]quinoline-8-carbonitrile] | 21 nM |

Now from value to compound:

| IC50 | SMILES |
| --- | --- |
| 11 nM | [2H]c1ccc2c(N3C[C@@H]4C[C@H](N5CCN(c6ccncc6)CC5)CCN4[C@H](C)C3)ccc(C#N)c2n1 [Example 37, 5-[(4R,8R,9aS)-4-methyl-8-[4-(4-pyridyl)piperazin-1-yl]-1,3,4,6,7,8,9,9a-octahydropyrido[1,2-a]pyrazin-2-yl]-2-deuterio-quinoline-8-carbonitrile] |
| 33 nM | C[C@@H]1CN(c2ccc(C#N)c3ncccc23)C[C@@H]2C[C@H](NCc3ccc(N4CCNCC4)cc3)CCN21 [Example 1, 5-[(4R,8R,9aS)-4-methyl-8-[(4-piperazin-1-ylphenyl)methylamino]-1,3,4,6,7,8,9,9a-octahydropyrido[1,2-a]pyrazin-2-yl]quinoline-8-carbonitrile] |
| 10 nM | C[C@@H]1CN(c2ccc(C#N)c3ncccc23)CC2C[C@H](c3ccc(N4CCNCC4)cc3)CCN21 (stereo partly drawn) [Example 3, 5-[(4R,8R)-4-methyl-8-(4-piperazin-1-ylphenyl)-1,3,4,6,7,8,9,9a-octahydropyrido[1,2-a]pyrazin-2-yl]quinoline-8-carbonitrile] |
| 20 nM | C[C@@H]1CN(c2ccc(C#N)c3ncccc23)C[C@@H]2C[C@H](Nc3ccc(C[C@@H]4CNCCO4)cc3)CCN21 [Example 21, 5-[(4R,8R,9aS)-4-methyl-8-[4-[[(2R)-morpholin-2-yl]methyl]anilino]-1,3,4,6,7,8,9,9a-octahydropyrido[1,2-a]pyrazin-2-yl]quinoline-8-carbonitrile] |
| 47 nM | [2H]c1ccc2c(N3C[C@@H]4C[C@H](Nc5ccc(C[C@H]6CNCCO6)cc5)CCN4[C@H](C)C3)ccc(C#N)c2n1 [Example 34, 5-[(4R,8R,9aS)-4-methyl-8-[4-[[(2S)-morpholin-2-yl]methyl]anilino]-1,3,4,6,7,8,9,9a-octahydropyrido[1,2-a]pyrazin-2-yl]-2-deuterio-quinoline-8-carbonitrile] |
| 30 nM | C[C@@H]1CN(c2ccc(C#N)c3ncccc23)C[C@@H]2C[C@@H](c3ccc(CC4CNCCO4)cc3)CCN21 (stereo partly drawn) [Example 26, 5-[(4R,8S,9aS)-4-methyl-8-[4-(morpholin-2-ylmethyl)phenyl]-1,3,4,6,7,8,9,9a-octahydropyrido[1,2-a]pyrazin-2-yl]quinoline-8-carbonitrile] |
| 4 nM | C[C@@H]1CN(c2ccc(C#N)c3ncccc23)C[C@@H]2C[C@H](c3ccc([C@@H]4CNCCO4)cc3)CCN21 [Example 27, 5-[(4R,8R,9aS)-4-methyl-8-[4-[(2R)-morpholin-2-yl]phenyl]-1,3,4,6,7,8,9,9a-octahydropyrido[1,2-a]pyrazin-2-yl]quinoline-8-carbonitrile] |
| 13 nM | C[C@@H]1CN(c2ccc(C#N)c3ncccc23)C[C@@H]2C[C@H](Nc3ccc([C@H]4CNCCO4)cc3)CCN21 [Example 20, 5-[(4R,8R,9aS)-4-methyl-8-[4-[(2S)-morpholin-2-yl]anilino]-1,3,4,6,7,8,9,9a-octahydropyrido[1,2-a]pyrazin-2-yl]quinoline-8-carbonitrile] |
